Test results published in ChEMBL document CHEMBL5325426, “Structure-based discovery of potent USP28 inhibitors derived from Vismodegib” (Eur J Med Chem, 2023).
The source made the active and inactive calls. The rule behind the calls is not given here.

Columns and labels:
[1] = target: T1, Ubiquitin carboxyl-terminal hydrolase 28 (Homo sapiens, UniProt Q96RU2); assay: Inhibition of USP28 (149 to 703 residues) (unknown origin) expressed in Escherichia coli BL21 (DE3) using Ub-AMC as substrate by fluorescence based analysis
T1 sequence (Q96RU2 whole entry): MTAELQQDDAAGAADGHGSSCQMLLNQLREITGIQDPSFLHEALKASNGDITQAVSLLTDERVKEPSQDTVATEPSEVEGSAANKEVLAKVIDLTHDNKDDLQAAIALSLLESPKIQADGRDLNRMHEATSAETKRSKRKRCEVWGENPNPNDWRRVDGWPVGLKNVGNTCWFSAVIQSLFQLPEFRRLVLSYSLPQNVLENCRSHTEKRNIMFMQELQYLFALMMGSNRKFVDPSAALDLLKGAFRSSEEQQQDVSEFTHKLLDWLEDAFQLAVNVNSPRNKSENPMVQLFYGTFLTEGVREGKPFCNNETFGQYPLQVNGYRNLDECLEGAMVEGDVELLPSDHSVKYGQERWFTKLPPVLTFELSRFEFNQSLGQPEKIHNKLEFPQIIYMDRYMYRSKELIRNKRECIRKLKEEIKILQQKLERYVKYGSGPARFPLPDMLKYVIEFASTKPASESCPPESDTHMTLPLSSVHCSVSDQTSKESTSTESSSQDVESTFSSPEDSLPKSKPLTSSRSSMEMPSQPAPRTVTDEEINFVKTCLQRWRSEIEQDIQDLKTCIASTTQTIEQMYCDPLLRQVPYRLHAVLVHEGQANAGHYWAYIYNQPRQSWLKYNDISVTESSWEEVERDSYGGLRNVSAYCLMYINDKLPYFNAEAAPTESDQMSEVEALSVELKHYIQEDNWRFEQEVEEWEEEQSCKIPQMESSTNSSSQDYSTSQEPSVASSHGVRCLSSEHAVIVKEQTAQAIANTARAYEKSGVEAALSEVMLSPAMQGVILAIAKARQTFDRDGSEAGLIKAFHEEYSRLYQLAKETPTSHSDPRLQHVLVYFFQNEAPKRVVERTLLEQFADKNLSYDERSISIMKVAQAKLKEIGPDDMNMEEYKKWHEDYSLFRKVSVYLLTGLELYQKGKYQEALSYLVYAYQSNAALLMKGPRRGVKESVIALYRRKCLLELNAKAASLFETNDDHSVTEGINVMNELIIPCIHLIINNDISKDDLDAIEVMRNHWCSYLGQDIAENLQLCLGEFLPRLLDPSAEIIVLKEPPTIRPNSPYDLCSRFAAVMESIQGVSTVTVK

[2] = target: T2, Ubiquitin carboxyl-terminal hydrolase 2 (Homo sapiens) (UniProt O75604); assay: Inhibition of USP2 (258 to 605 residues) (unknown origin) expressed in Escherichia coli BL21 (DE3) using Ub-AMC as substrate at 5 uM by fluorescence based analysis
T2 sequence (whole entry): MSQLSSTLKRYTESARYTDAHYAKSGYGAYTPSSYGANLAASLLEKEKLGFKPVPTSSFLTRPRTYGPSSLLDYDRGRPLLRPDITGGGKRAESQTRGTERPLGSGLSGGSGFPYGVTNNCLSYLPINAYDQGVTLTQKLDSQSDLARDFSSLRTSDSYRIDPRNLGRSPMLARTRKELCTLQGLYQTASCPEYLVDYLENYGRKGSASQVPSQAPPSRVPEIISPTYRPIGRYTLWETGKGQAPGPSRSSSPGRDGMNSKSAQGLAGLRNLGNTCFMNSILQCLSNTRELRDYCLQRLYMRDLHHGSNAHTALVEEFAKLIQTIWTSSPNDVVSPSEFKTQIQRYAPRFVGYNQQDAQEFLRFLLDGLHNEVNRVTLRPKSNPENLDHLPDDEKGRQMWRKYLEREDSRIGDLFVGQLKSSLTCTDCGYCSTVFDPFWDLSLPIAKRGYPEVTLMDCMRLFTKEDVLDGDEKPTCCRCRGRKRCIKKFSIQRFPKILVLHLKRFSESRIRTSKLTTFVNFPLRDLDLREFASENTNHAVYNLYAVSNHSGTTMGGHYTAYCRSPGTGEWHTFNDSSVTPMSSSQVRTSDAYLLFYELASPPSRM

[3] = target: Ubiquitin carboxyl-terminal hydrolase 9X (Homo sapiens) (UniProt Q93008); assay: Inhibition of USP9X (1151 to 1970 residues) (unknown origin) expressed in Escherichia coli BL21 (DE3) using Ub-AMC as substrate at 5 uM by fluorescence based analysis
[4] = target: T3, Ubiquitin carboxyl-terminal hydrolase isozyme L5 (Homo sapiens) (UniProt Q9Y5K5); assay: Inhibition of UCHL5 (1 to 228 residues) (unknown origin) expressed in Escherichia coli BL21 (DE3) using Ub-AMC as substrate at 5 uM by fluorescence based analysis
T3 sequence (whole entry): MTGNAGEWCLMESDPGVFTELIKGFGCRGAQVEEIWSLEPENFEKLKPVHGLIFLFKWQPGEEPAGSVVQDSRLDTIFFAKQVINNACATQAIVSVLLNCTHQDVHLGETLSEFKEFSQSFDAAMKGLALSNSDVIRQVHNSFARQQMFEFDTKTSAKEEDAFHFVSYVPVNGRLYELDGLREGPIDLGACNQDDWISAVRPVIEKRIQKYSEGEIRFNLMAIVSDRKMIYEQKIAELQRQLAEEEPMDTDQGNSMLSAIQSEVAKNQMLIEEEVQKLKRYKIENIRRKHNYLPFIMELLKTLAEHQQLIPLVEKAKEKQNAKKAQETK

[5] = system: HCT-116; assay: Antiproliferative activity against human HCT-116 cells assessed as cell growth inhibition incubated for 3 days by SRB assay; format: functional, cell-based; conditions: HCT-116, 72 h
[6] = system: LS174T; assay: Antiproliferative activity against human LS174T cells assessed as cell growth inhibition incubated for 3 days by SRB assay; format: functional, cell-based; conditions: 72 h

Sequence of Ubiquitin carboxyl-terminal hydrolase 9X (Homo sapiens) (Q93008 whole entry, the tested form may be a part): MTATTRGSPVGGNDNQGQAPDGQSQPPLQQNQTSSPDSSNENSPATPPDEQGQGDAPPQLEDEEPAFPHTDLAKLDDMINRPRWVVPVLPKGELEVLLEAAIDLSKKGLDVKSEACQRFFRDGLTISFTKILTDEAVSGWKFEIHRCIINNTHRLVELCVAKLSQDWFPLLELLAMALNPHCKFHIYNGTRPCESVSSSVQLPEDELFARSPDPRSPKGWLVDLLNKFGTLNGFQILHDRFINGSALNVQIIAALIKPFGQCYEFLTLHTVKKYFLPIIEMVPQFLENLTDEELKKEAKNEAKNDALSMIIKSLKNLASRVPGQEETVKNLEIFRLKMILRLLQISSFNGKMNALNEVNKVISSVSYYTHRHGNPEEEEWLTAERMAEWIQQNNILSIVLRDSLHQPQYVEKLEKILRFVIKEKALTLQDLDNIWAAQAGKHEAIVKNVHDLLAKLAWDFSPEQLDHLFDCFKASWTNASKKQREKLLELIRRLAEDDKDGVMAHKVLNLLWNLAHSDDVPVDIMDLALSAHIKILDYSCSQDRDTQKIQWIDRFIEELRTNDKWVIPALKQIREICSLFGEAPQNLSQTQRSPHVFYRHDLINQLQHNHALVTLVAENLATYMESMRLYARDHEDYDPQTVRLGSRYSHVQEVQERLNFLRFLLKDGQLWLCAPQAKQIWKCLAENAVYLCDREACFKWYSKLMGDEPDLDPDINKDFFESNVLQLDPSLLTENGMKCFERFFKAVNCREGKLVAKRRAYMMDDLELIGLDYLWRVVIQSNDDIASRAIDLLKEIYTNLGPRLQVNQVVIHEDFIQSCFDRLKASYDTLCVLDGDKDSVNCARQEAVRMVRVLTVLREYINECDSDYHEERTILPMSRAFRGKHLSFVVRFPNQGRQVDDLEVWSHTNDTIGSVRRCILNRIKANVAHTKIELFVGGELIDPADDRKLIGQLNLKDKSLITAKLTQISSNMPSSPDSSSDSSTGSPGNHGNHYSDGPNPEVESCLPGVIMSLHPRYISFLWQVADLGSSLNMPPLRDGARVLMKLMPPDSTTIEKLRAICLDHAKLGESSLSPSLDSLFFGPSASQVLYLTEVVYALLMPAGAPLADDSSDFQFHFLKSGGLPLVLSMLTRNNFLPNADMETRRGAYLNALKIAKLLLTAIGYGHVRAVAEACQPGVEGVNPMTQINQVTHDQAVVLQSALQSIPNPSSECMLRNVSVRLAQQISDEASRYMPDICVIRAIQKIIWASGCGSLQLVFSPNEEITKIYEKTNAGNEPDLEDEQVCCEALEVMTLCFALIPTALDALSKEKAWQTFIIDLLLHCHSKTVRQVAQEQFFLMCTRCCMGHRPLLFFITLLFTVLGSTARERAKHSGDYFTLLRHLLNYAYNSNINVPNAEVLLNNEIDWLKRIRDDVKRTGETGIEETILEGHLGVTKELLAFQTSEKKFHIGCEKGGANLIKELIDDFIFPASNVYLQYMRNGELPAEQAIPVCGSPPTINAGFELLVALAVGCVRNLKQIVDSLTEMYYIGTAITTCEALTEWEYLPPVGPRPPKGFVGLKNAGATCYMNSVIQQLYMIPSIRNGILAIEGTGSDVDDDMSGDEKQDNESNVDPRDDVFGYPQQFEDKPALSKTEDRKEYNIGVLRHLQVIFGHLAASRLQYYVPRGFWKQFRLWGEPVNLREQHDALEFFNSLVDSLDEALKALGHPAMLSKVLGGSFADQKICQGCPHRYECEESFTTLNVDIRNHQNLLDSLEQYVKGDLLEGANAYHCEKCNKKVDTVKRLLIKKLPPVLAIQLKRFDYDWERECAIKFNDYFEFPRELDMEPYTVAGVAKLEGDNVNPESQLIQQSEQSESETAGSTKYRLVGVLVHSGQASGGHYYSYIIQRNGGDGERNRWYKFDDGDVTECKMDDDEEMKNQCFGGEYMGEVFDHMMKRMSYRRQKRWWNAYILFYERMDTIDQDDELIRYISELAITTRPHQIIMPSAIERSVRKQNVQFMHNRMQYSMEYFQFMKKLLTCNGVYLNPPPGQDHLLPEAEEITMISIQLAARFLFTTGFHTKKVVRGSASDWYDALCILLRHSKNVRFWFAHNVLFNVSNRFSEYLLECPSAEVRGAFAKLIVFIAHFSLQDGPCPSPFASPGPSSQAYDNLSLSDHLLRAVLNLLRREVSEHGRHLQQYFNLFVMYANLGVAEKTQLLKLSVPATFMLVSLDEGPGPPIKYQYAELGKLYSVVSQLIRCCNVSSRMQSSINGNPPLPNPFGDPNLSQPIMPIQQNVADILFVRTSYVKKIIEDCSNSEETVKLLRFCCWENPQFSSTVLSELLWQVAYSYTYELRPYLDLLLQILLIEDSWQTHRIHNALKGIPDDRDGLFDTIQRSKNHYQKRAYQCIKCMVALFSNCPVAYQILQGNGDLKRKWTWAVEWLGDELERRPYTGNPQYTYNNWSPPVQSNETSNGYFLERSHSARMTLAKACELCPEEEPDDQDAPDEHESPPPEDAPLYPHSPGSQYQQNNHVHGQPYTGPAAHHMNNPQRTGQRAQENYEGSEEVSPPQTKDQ

IC50 [1] | inhibition [2] | inhibition [3] | inhibition [4] | IC50 [5] | SMILES | IC50 [6]
300 nM | Active | Active | Active | 26 µM | CS(=O)(=O)c1ccc(C(=O)Nc2ccc(Cl)c(-c3ccc(C4(N)CC4)cc3)c2)c(Cl)c1 | 21.9 µM
100 nM | Active | Active | Active | 24.2 µM | CS(=O)(=O)c1ccc(C(=O)Nc2ccc(Cl)c(-c3ccc4c(c3)CCNC4)c2)c(Cl)c1 | 19.9 µM
40 nM | Active | Active | Active | 38.1 µM | CS(=O)(=O)c1ccc(C(=O)Nc2ccc(Cl)c(-c3ccc4c(c3)CNC4)c2)c(Cl)c1 | 24.3 µM
